Measured values from patent US4760065A, “Trifluoromethyl substituted tetracyclic quinazolin-ones having tranquilizing activity” (priority 1986, dated 1988).

Key:
rats [1] = assay: Geller Conflict test (conflict segment); format: in vivo; conditions: Rattus norvegicus; for minimal effective dose: conflict segment (number of lickings), read-out: minimum effective dosage in conflict test
Method: Speth et al., Life Science, 22: 859 (1978). Routine and non-substantive modifications of the Flunitrazepam Receptor Binding Assay that are evident from the following description are employed in such evaluation in which non-radioactive candidate compounds are tested for their ability to displace ^3 H-flunitrazepam binding from isolated calf brain benzodiazepine receptors. […] This suspension is made homogenous by homogenation with a Brinkmann Polytron using a rheostate setting of 8 for 10 seconds. Ten λ of ^3 H-flunitrazepam solution is diluted in 0.05M Tris buffer (pH 7.1 at 37° C.) to give a concentration of 10 nM (3.13×10^-6 mg/ml). This solution is stored frozen at -20° C., while the stock ^3 H-flunitrazepam solution in ethanol is kept refrigerated at +2° C. Periodically, the stock ethanolic ^3 H-flunitrazepam solution is examined by TLC for chemical purity. If the purity becomes <90%, the stock solution is repurified or new high purity ^3 H-flunitrazepam is obtained and the impure ^3 H-flunitrazepam discarded. A 0.1 ml portion of 10 nM ^3 H-flunitrazepam "working" solution is added to 12×75 mm borosilicate disposable test tube along with 0.1 ml of freshly prepared 10% ethanol solution. This is the control tube for measuring total binding. Non-specific binding is determined by the addition of 2×10^-5 diazepam (in 10% ethanol) to other tubes in the place of 0.1 ml 10% ethanol. The specific binding is determined in the final results by subtraction of the non-specific binding from the total binding. […] Three mg of each compound are placed in 18×150 mm borosilicate disposable test tubes. […] The ^3 H-flunitrazepam trapped on the filters is counted by liquid scintillation counting on a Beckman LS 8000 after the filters are rapidly shaken for 45 minutes in the scintillation vials with 10 ml of scintillation cocktail. Results of compounds screened are calculated by the on-line data reduction system in the Beckman LS 8000, and are expressed as a percent specifically bound compared to control. […]

[2] = target: calf brain benzodiazepine receptors (3H-Flunitrazepam binding, calf brain cortex); assay: Flunitrazepam Receptor Binding Assay, Chang et al. modification (FBA TEST No. 2); conditions: read-out: IC50 in FBA test (inhibition of specific binding of 3H-Flunitrazepam)
Method: Substantially similar results are obtainable in a Flunitrazepam Receptor Binding Assay (FBA) as described by Chang et. al., Eur. J. Pharmacol., 48, 213 (1978): when carried out with the non-substantive modifications evident from the following description (hereinafter FBA TEST No. (2): Fresh calf brain cortex is homogenized in a 19 fold volume of Tris-HCl buffer pH 7.4, using a Brinkman Polytron PT 20 and centrifuged at 50'000 g for 10 min. The pellets are frozen at -20° C. and resuspended in a 400 fold volume of Tris-buffer pH 7.4 before use for the binding assay. The assay mixtures consist of 1.8 ml of homogenate (corresponding to 4.5 mg of original tissue), 0.1 ml [^3 H]-Flunitrazepam (final concentration 1.5 nM), and 0.1 ml of buffer for determination of total binding or 0.1 ml of unlabelled Flunitrazepam (final concentration 1 μM) for determination of nonspecific binding, respectively. To assess the potency of various drugs in inhibiting specific binding, drugs are added (instead of buffer) to give 5 to 9 different concentrations between 1 nM and 10 μM, each in duplicate. After incubation for 15 min at 0° C., the assay mixtures are rapidly filtered through Whatman GF/B filters and washed twice with 5 ml of ice cold Tris-buffer. The filters are counted in Rialuma on a LKB Rach-Beta Liquid Scintillation Counter. […]

[3] = system: monkeys, rats, cats, mice; assay: Other standard CNS depressant tests (sleep studies, spinal reflex test, chemically induced convulsions test, Dunham rotarod test, variable interval segment of Geller Conflict test); format: in vivo; conditions: at the doses useful as minor tranquilizers, sleep studies in monkeys and rats
rats [4] = assay: Discrimination Test; format: in vivo; conditions: Rattus norvegicus, tranquilizing activity
Description: (§1) While the racemates and individual optical isomers were indicated to have about the same level of activity in FBA tests specifically indicating tranquilizing activity, a marked difference was found between R-and S optical isomers in vivo in tests indicative of sedation. […] On the other hand, in the case of the S-isomer, the doses producing sedation effects were indicated to substantially overlap those at which tranquilizing activity was indicated. For example, in vivo tests in rats. The S-isomer of Example 9 hereinafter was indicated to have tranquilizing (anxiolytic) action in the dose range of about 2 to 15 milligrams per kilograms and mild sedation-related effects in the dose range of about 3-50 milligrams per kilogram. […] In evaluation of the optical isomers in rats to obtain the above indications, the Discrimination Test and the conflict segment (number of lickings) of Geller Conflict Test were used to evaluate tranquilizing activity. […] In the conflict test, the R-isomer was indicated to have a minimum effective dosage of 30 mg/kg. and the S-isomer a minimum effective dosage of 10 mg/kg. […] On the other hand, the S-isomer was indicated to have an ED50 between 40-50 mg/kg. in the Rotarod, Locomotion and Rearing Tests and a low minimum effective dose of 3 mg/kg. in the Sleep Studies.

[5] = Rotarod, Locomotion and Rearing Tests (indicative of sedation); format: in vivo; conditions: rat, locomotion, rearing tests, rats, one value stated for the three tests
Description: as §1

rats [6] = assay: Sleep studies (sleep/wakefulness studies); format: in vivo; conditions: indicative of sedation
Description: as §1

rats [7] = assay: In vivo tests in rats: dose ranges of tranquilizing action and sedation-related effects; conditions: about; for dose range of sedation-related effects: mild (S-isomer) or weak-to-mild (R-isomer) effects
Description: as §1

O=c1c2cc(C(F)(F)F)ccc2nc2n1CC1CCCCN21 (stereo not drawn) [Example 1, Trans(e,e)-( )-2-trifluoromethyl-7,8,9,10,10a,11-Hexahydro-13H-pyrido[1',2':3,4]-imidazo[2,1-b]-quinazolin-13-one]
ED50 (rats [1]; po, P.O.): 15 mg/kg
IC50 [2]: 6.5 nM
activity in other standard CNS depressant tests [3]: only mildly active or essentially inactive

O=c1c2cc(C(F)(F)F)ccc2nc2n1C[C@H]1CCCCN21 [Example 5, (-)-10aR-7,8,9,10,10a,11-hexahydro-2-trifluoromethyl-13H-pyrido[1,'2':3,4]imidazo[2,1b]quinazolin-13-one]
minimal effective dose (rats [1]): 30 mg/kg
ED50 (rats [4]): 4.2 mg/kg
ED50 [5]: > 120 mg/kg
minimum effective dose in sleep studies (sleep/wakefulness studies) (rats [6]): 60 mg/kg
dose range of tranquilizing (anxiolytic) action (rats [7]): 4-40 milligrams per kilogram
dose range of sedation-related effects (rats [7]): 60-120 milligrams per kilogram

O=c1c2cc(C(F)(F)F)ccc2nc2n1C[C@@H]1CCCCN21 [Example 8, (+)-10aS-7,8,9,10,10a,11-Hexahydro-2-trifluoromethyl-13H-pyrido[1,'2':3,4]imidazo[2,1b]quinazolin-13-one]
minimal effective dose (rats [1]): 10 mg/kg
ED50 (rats [4]): 2.6 mg/kg
ED50 [5]: 40 to 50 mg/kg
minimum effective dose in sleep studies (sleep/wakefulness studies) (rats [6]): 3 mg/kg
dose range of sedation-related effects (rats [7]): 3-50 milligrams per kilogram
